According to patent US6653342B2, “13-substituted milbemycin derivatives, their preparation and their use against insects and other pests” (Sankyo Company, Limited, priority 2000, dated 2003):

Columns and labels:
Format in all cases: in vivo
cat fleas [1] = test: whole plant or invertebrate; settings: 1 ppm in bovine serum sucked through Parafilm at 37° C., dead fleas after 48 hours, 20 fleas per group, corrected by control group
Method: (§1) A test container wherein the living space of fleas was isolated from bovine serum by use of Parafilm™ (obtainable from Aldrich Chemical Co. Ltd.), which is usually used as an artificial skin, was prepared. A compound to be tested was added to the bovine serum in an amount sufficient for its concentration to be 1 ppm, and the fleas were allowed to suck the serum sample through the Parafilm™ at 37° C. Each group consisted of 20 fleas. […] By counting the dead fleas in a control group without a test compound, the mortality was corrected.

cat fleas [2] = test: Test on insecticidal effect against cat fleas (Test Example 12, serum feeding through Parafilm); settings: 1 ppm in bovine serum, 37° C., after 48 hours, corrected by control group
Method: as §1

two-spotted spider mites = test: Test on miticidal effect against two-spotted spider mites, cowpea leaf dip (Test Example 9); settings: for The death rate of mites (%): cowpea leaf dip, 2 days after treatment; for Death rate of hatchlings (%) / Death rate of mite eggs (%): 7 days after treatment; for Death rate of mite eggs (%): unhatched eggs; for The egg of two-spotted spider mite (7 days after) dead: number of dead eggs of total 20
Method: The remainder of the test compound solution was removed and the treated leaf was allowed to stand in a Petri dish containing a sponge covered with a filter paper soaked in water. After the test compound solution on the leaf had dried, eggs of the mites were marked. The leaf was then allowed to stand at 25° C. on the Petri dish without a lid. Two days after treatment with the test compound, the death rate of mites (expressed as a percentage of the total number of mites) was determined. Seven to ten days after the treatment, the “death rate” of the mite eggs (expressed as the percentage of the total number of mite eggs which were unhatched) and the death rate of the hatchlings (expressed as the percentage of the total number of hatchlings which were killed) was estimated. The test was repeated at different concentrations of the test compound. “Untreated” in this test means the control test in which water was used instead of the test compound solution.

`CC[C@H]1O[C@]2(CC[C@@H]1C)C[C@@H]1C[C@@H](C/C=C(\C)[C@H](OC(=O)C3(c4ccccc4)CCCC3)[C@@H](C)/C=C/C=C3\CO[C@@H]4[C@H](O)C(C)=C[C@@H](C(=O)O1)[C@]34O)O2` [Comparative Compound A, reference compound] gave a mortality at 1 ppm (cat fleas [1]; Ctenocephalides felis) of 2.4% and a mortality at 1 ppm (cat fleas [2]; Ctenocephalides felis) of 2.4%.
With `CCC1OC2(CCC1C)CC1CC(CC=C(C)C(OC(=O)C3(c4ccc(N)cc4)CCCC3)C(C)C=CC=C3COC4C(O)C(C)=CC(C(=O)O1)C34O)O2` (stereo not drawn) [Example 1(b), 13-[1-(4-Aminophenyl)cyclopentanecarbonyloxy]-5-hydroxymilbemycin A4] the “Mortality (%)” value (cat fleas [1]) was 95.0%.
`CCC1OC2(CCC1C)CC1CC(CC=C(C)C(OC(=O)C3(c4ccc(NC(C)=O)cc4)CCCC3)C(C)C=CC=C3COC4C(O)C(C)=CC(C(=O)O1)C34O)O2` (stereo not drawn) [Example 2, 13-[1-(4-Acetylaminophenyl)cyclopentanecarbonyloxy]-5-hydroxymilbemycin A4] was tested, and the “Mortality (%)” value (cat fleas [1]) was 95.0%.
For `CCC1OC2(CCC1C)CC1CC(CC=C(C)C(OC(=O)C3(c4ccc(NC(=O)CC#N)cc4)CCCC3)C(C)C=CC=C3COC4C(O)C(C)=CC(C(=O)O1)C34O)O2` (stereo not drawn) [Example 3, 13-[1-(4-Cyanoacetylaminophenyl)cyclopentanecarbonyloxy]-5-hydroxymilbemycin A4], the “Mortality (%)” value (cat fleas [1]) was 81.4%.
In the case of `CCC1OC2(CCC1C)CC1CC(CC=C(C)C(OC(=O)C3(c4ccc(NS(C)(=O)=O)cc4)CCCC3)C(C)C=CC=C3COC4C(O)C(C)=CC(C(=O)O1)C34O)O2` (stereo not drawn) [Example 4, 13-[1-(4-Methanesulfonylaminophenyl)cyclopentanecarbonyloxy]-5-hydroxy-milbemycin A4], the “Mortality (%)” value (cat fleas [1]) is reported as 100.0%.
For `CCC1OC2(CCC1C)CC1CC(CC=C(C)C(OC(=O)C3(c4ccc(NC(=O)CO)cc4)CCCC3)C(C)C=CC=C3COC4C(O)C(C)=CC(C(=O)O1)C34O)O2` (stereo not drawn) [Example 5, 13-[1-(4-Hydroxyacetylaminophenyl)cyclopentanecarbonyloxy]-5-hydroxy-milbemycin A4], the “Mortality (%)” value (cat fleas [1]) was 74.4%.
For `CCC1OC2(CCC1C)CC1CC(CC=C(C)C(OC(=O)C3(c4ccc(NC(=O)CN(C)C(C)=O)cc4)CCCC3)C(C)C=CC=C3COC4C(O)C(C)=CC(C(=O)O1)C34O)O2` (stereo not drawn) [Example 6, 13-{1-[4-(N-Acetyl-N-methylglycylamino)phenyl]cyclopentanecarbonyloxy}-5-hydroxymilbemycin A4], the “Mortality (%)” value (cat fleas [1]) was 79.5%.
`COCC(=O)Nc1ccc(C2(C(=O)OC3C(C)=CCC4CC(CC5(CCC(C)C(C)O5)O4)OC(=O)C4C=C(C)C(O)C5OCC(=CC=CC3C)C45O)CCCC2)cc1` (stereo not drawn) [Example 8, 13-[1-(4-Methoxyacetylaminophenyl)cyclopentanecarbonyloxy]-5-hydroxy-milbemycin A3] was tested, and the “Mortality (%)” value (cat fleas [1]) was 87.6%.
`CC1=CC2C(=O)OC3CC(CC=C(C)C(OC(=O)C4(c5ccc(NS(C)(=O)=O)cc5)CCCC4)C(C)C=CC=C4COC(C1O)C42O)OC1(CCC(C)C(C)O1)C3` (stereo not drawn) [Example 9, 13-[1-(4-Methanesulfonylaminophenyl)cyclopentanecarbonyloxy]-5-hydroxy-milbemycin A3] was tested, and the “Mortality (%)” value (cat fleas [1]) was 83.2%.
For `CCC1OC2(CCC1C)CC1CC(CC=C(C)C(OC(=O)C3(c4ccc(NC(=O)COC)cc4)CCC3)C(C)C=CC=C3COC4C(O)C(C)=CC(C(=O)O1)C34O)O2` (stereo not drawn) [Example 15, 13-[1-(4-Methoxyacetylaminophenyl)cyclobutanecarbonyloxy]-5-hydroxy-milbemycin A4], the “Mortality (%)” value (cat fleas [2]) was 100%.
With `CCC1OC2(CCC1C)CC1CC(CC=C(C)C(OC(=O)C3(c4ccc(NC(C)=O)cc4)CCC3)C(C)C=CC=C3COC4C(O)C(C)=CC(C(=O)O1)C34O)O2` (stereo not drawn) [Example 16, 13-[1-(4-Acetylaminophenyl)cyclobutanecarbonyloxy]-5-hydroxymilbemycin A4] the “Mortality (%)” value (cat fleas [2]) was 92.9%.
With `CCC1OC2(CCC1C)CC1CC(CC=C(C)C(OC(=O)C3(c4ccc(NS(C)(=O)=O)cc4)CCC3)C(C)C=CC=C3COC4C(O)C(C)=CC(C(=O)O1)C34O)O2` (stereo not drawn) [Example 17, 13-[1-(4-Methanesulfonylaminophenyl)cyclobutanecarbonyloxy]-5-hydroxy-milbemycin A4] the “Mortality (%)” value (cat fleas [2]) was 94.9%.
`CCC1OC2(CCC1C)CC1CC(CC=C(C)C(OC(=O)C3(c4ccc(NC(=O)C(F)(F)F)cc4)CCC3)C(C)C=CC=C3COC4C(O)C(C)=CC(C(=O)O1)C34O)O2` (stereo not drawn) [Example 18, 13-[1-(4-Trifluoroacetylaminophenyl)cyclobutanecarbonyloxy]-5-hydroxy-milbemycin A4] was tested, and the “Mortality (%)” value (cat fleas [2]) was 91.5%.
For `C#CCCC(=O)Nc1ccc(C2(C(=O)OC3C(C)=CCC4CC(CC5(CCC(C)C(CC)O5)O4)OC(=O)C4C=C(C)C(O)C5OCC(=CC=CC3C)C45O)CCC2)cc1` (stereo not drawn) [Example 19, 13-[1-(4-Pentynoylaminophenyl)cyclobutanecarbonyloxy]-5-hydroxymilbemycin A4], the “Mortality (%)” value (cat fleas [2]) was 90.7%.
In the case of `CC[C@H]1O[C@]2(CC[C@@H]1C)C[C@@H]1C[C@@H](C/C=C(\C)[C@H](OC(=O)C3(c4ccc(NC(=O)COC)cc4)CCCC3)[C@@H](C)/C=C/C=C3\CO[C@@H]4[C@H](O)C(C)=C[C@@H](C(=O)O1)[C@]34O)O2` [Test Compound Solution], the “The death rate of mites (%)” value (two-spotted spider mites; 0.1 ppm) is reported as 98.5%, the “two-spotted spider mite (2 days after) dead” value (two-spotted spider mites; 0.1 ppm, number of dead mites of total 65) is reported as 64 and the “two-spotted spider mite (2 days after) agony” value (two-spotted spider mites; 0.1 ppm, number of mites in agony of total 65) is reported as 1. For the same molecule, the “Death rate of hatchlings (%)” value (two-spotted spider mites; 1 ppm) was 30%, the “Death rate of mite eggs (%)” value (two-spotted spider mites; 1 ppm) was 0% and the “The death rate of mites (%)” value (two-spotted spider mites; 1 ppm) was 100%. For the same molecule, the “The egg of two-spotted spider mite (7 days after) dead” value (from here on “The egg of two-spotted spider mite”) (two-spotted spider mites; 1 ppm) was 0, the “two-spotted spider mite (2 days after) dead” value (two-spotted spider mites; 1 ppm, number of dead mites of total 55) was 55 and the “Death rate of hatchlings (%)” value (two-spotted spider mites; 10 ppm) was 100%. For the same molecule, the “Death rate of mite eggs (%)” value (two-spotted spider mites; 10 ppm) was 25%, the “The death rate of mites (%)” value (two-spotted spider mites; 10 ppm) was 100% and the “The egg of two-spotted spider mite” value (two-spotted spider mites; 10 ppm) was 5. The “two-spotted spider mite (2 days after) dead” value (two-spotted spider mites; 10 ppm, number of dead mites of total 39) was 39, the “Death rate of hatchlings (%)” value (two-spotted spider mites; 100 ppm) was 100% and the “Death rate of mite eggs (%)” value (two-spotted spider mites; 100 ppm) was 90%. For the same molecule, the “The death rate of mites (%)” value (two-spotted spider mites; 100 ppm) was 100%, the “The egg of two-spotted spider mite” value (two-spotted spider mites; 100 ppm) was 18 and the “two-spotted spider mite (2 days after) dead” value (two-spotted spider mites; 100 ppm, number of dead mites of total 48) was 48.
